Results taken from patent US20060241038A1, “Therapeutic agent for Abeta related disorders” (Eisai Co., Ltd., priority 2005, published 2006).
“Also recorded” adds a separate entry of the source.

Key:
Aβ42 = assay: ELISA quantification of Aβ42 in rat fetal brain-derived nerve cell culture medium; assay type: cell-based; conditions: 3 days culture; effect stated as concentration-dependent (FIGS. 7-1 to 7-3)
Experimental: (§1) At 4 days after initiation of culturing, the test compounds synthesized in the preceding Examples, i.e., Compound A, Compound B (CAS#501907-79-5) or Compound C (CAS#670250-40-5) were added as follows. The medium was entirely removed and replaced by Neurobasal/B27/2ME free from 2-ME (i.e., Neurobasal/B27) in a volume of 11 ml/dish. The test compounds (Compounds A, B and C) in DMSO were diluted with Neurobasal/B27 to 100-fold of their final concentration and added in a volume of 110 μl/dish, followed by sufficient mixing. The final DMSO concentration was kept at 1% or below. The control group received DMSO alone.
(§2) After addition of the test compounds, the cells were cultured for 3 days and the whole volume of the medium was collected from each dish. The resulting medium was provided as a MALDI-TOF/MS sample.
(§3) A part of each medium collected in Example 7(3) aforementioned was used as an ELISA sample. Each sample was not diluted for Aβ42 measurement, while it was diluted 5-fold for Aβ40 measurement with a diluent attached to an ELISA kit before being subjected to ELISA.
(§4) Aβ ELISA was performed using a Human Amyloid beta (1-42) Assay Kit (#17711, IBL Co., Ltd.) and a Human Amyloid beta (1-40) Assay Kit (#17713, IBL Co., Ltd.) in accordance with the kit's recommended protocol (the procedures described in the attached document), provided that a calibration curve for each Aβ was prepared using beta-amyloid peptide 1-42 (rat) or beta-amyloid peptide 1-40 (rat) (Calbiochem. #171596[Aβ4 2] or #171593[Aβ4 0]). The results were expressed as percentages (% of Control) relative to the Aβ concentration in the medium from the control group (untreated group, Control).

[1] = tested on: Aβ fragments in rat fetal brain-derived nerve cell culture medium; assay: MALDI-TOF/MS analysis of Aβ in rat fetal brain-derived nerve cell culture medium; assay type: cell-based; conditions: 3 days culture with various concentrations of test compound; normalized to internal standard Aβ12-28
Experimental: In the same manner as shown in Example 3 above, brain cortex-derived nerve cells were prepared from Wistar rats at 18 days of embryonic age. The nerve cell suspension was diluted with a medium and seeded onto 10 cm polystyrene culture dishes pre-coated with poly-D-lysine (BIOCOAT® cell environments Poly-D-lysine cell culture dish, Becton Dickinson Labware) in a volume of 15 ml/dish so as to give an initial cell density of 3.5×10^5 cells/cm^2. After the seeded cells were cultured for 1 day in an incubator with 5% CO2, 95% air at 37° C., the medium was entirely replaced by fresh Neurobasal/B27/2ME, followed by culturing for an additional 3 days.
as §1, §2
Each sampled culture supernatant was collected in a 15 mL centrifuge tube and supplemented with 400 μL of a 25-fold concentrated solution of protease inhibitor cocktail Complete (Roche Diagnostics GmbH), followed by centrifugation at 4° C. at 3,000 rotations/minute for 5 minutes to sediment cell fragments. The resulting supernatant was transferred to another 15 mL centrifuge tube and supplemented with synthetic Aβ12-28 (Bachem) as an internal standard at a final concentration of 2 nM, followed by addition of 5 μg anti-Aβ monoclonal antibody (clone name: 4G8, Signet Laboratories, Inc). Subsequently, 5 μL of Protein G plus Protein A Agarose (Oncogene Research Products) was added after being blocked at 4° C. with 2% BSA and washed with TBS buffer. Further, 3-[(3-cholamidopropyl)dimethylammonio]-1-propanesulfonate (CHAPS; SIGMA) was added to each tube at a final concentration of 1%, followed by mixing at 4° C. for 4 to 8 hours.
The Protein G plus Protein A Agarose holding the immunoprecipitated Aβ fragments adsorbed thereto was collected from each tube by centrifugation at 4° C. at 3,000 rotations/minute for 5 minutes and transferred to a 1.5 mL microtube. The Protein G plus Protein A Agarose was washed twice with 500 μL of 140 mM NaCl, 0.1% N-Octyl Glucoside (NOG; Loche Diagnostics GmbH), 10 mM Tris-HCl, pH 8, once with 500 μL of Tris-HCl, 10 mM, pH 8, and then once with 500 μL of ion exchanged water. After washing with ion exchanged water, as much fluid as possible was removed from each tube and Aβs were eluted with 5 μL of 0.2% NOG, 2.4% trifluoroacetic acid (TFA; PIERCE) and 48.7% acetonitrile (HPLC grade, Wako Pure Chemical Industries, Ltd.). Independently of this, α-cyano-4-hydroxy-cinnamic acid (CHCA; BRUKER DALTONICS) was dissolved in 0.2% NOG, 0.1% TFA and 33% acetonitrile at a saturating concentration and supplemented with human insulin (Peptide Institute, Inc.) and angiotensin III (Peptide Institute, Inc.) as mass standards at fmal concentrations of 167 nM and 56 nM, respectively, for use as a matrix solution. Each Aβ eluate (0.5 μL) and the matrix solution (0.5 μL) were spotted at the same position on a sample plate for mass spectrometry and air-dried at room temperature, followed by analysis with a mass spectrometer Voyager DE (Applied Biosystems). All mass data detected were corrected for the mass of human insulin and angiotensin III (5807.6 and 931.1, respectively). […]

Aβ40 = assay: ELISA quantification of Aβ40 in rat fetal brain-derived nerve cell culture medium; assay type: cell-based; conditions: 3 days culture; effect stated as concentration-dependent (FIGS. 7-1 to 7-3)
Experimental: as §1, §2, §3, §4

Aβ42 production = conditions: reported in 2001 (refs 13, 14); cited from earlier work
[2] = Thioflavin T (ThT) analysis for aggregation ability of each Aβ; assay type: physicochemical; conditions: each Aβ alone, in 10 mM HEPES containing 0.9% NaCl, 37° C.; 10 μM ThT
Experimental: (§5) After addition of ThT (SIGMA) at a final concentration of 10 μM, each sample was transferred to a 96-well black plate (Corning) and stirred for 10 seconds, followed by measuring the fluorescence intensity for each sample. Using a fluorospectrometer (LJL Biosystems), the fluorescence intensity at a wavelength of 490 nm was measured with an excitation light of 450 nm wavelength.

[3] = Circular dichroism (CD) analysis of each Aβ (secondary structure); assay type: physicochemical; conditions: each Aβ alone, 37° C., until 5 days
Experimental: The solution was then dispensed in 10 to 30 μL aliquots into 500 μL polypropylene microtubes and stored at −80° C. until use.
The Aβ solutions in HFIP were evaporated using a centrifugal evaporator (Tomy Seiko Co., Ltd., CC-180 and ST-10) to remove HFIP and then dissolved in a solution of 10 mM HEPES containing 0.9% NaCl. Each of the resulting Aβ solution was incubated at 37° C. and measured for their CD at different time points.
The Aβ-containing solutions were injected into washed quartz cells with an optical path length of 1 or 2 mm and measured for their CD. Until measurement, the quartz cells were allowed to stand at 37° C., 100% humidity.

Aβ1-42 [4] = molecular target: T1, Aβ1-42 (Homo sapiens, UniProt P05067); assay: CD measurement on a 1:3 mixture of Aβ1-42 and each Aβ (β-sheet structure formation in Aβ1-42); assay type: biochemical; conditions: 5 μM Aβ1-42 mixed with 15 μM of the Aβ (1:3)
T1 construct: purchased Peptide Institute, Inc. 4349-v
Experimental: The solution was then dispensed in 10 to 30 μL aliquots into 500 μL polypropylene microtubes and stored at −80° C. until use. The Aβ solutions in HFIP were evaporated using a centrifugal evaporator (Tomy Seiko Co., Ltd., CC-180 and ST-10) to remove HFIP and then dissolved in a solution of 10 mM HEPES containing 0.9% NaCl. Each of the resulting Aβ solution was incubated at 37° C. and measured for their CD at different time points. […] The Aβ-containing solutions were injected into washed quartz cells with an optical path length of 1 or 2 mm and measured for their CD. Until measurement, the quartz cells were allowed to stand at 37° C., 100% humidity.

Aβ1-42 [5] = molecular target: T1, Aβ1-42; assay: ThT fluorescence of 1:3 mixtures of Aβ1-42 and each Aβ; assay type: biochemical; conditions: Aβ1-42 mixed with the Aβ at a ratio of 1:3
Experimental: as §5

| Compound | Aβ42 production (ELISA, % of Control) (Aβ42) | Aβ1-37 or Aβ11-37 production (MALDI-TOF/MS) [1] | Aβ1-38 or Aβ11-38 production (MALDI-TOF/MS) [1] | Aβ1-40 or Aβ11-40 production (MALDI-TOF/MS) [1] | Aβ1-42 or Aβ11-42 (peak intensity, MALDI-TOF/MS) [1] | Aβ40 production (ELISA, % of Control) (Aβ40) | fluorescence intensity of ThT (content of β-sheet structure) with incubation time [2] | other results |
| --- | --- | --- | --- | --- | --- | --- | --- | --- |
| COc1cc(/C=C/C(=O)NCc2cccc(-c3ccccc3)c2)ccc1-n1cnc(C)c1 [Compound A, (E)-N-biphenyl-3-ylmethyl-3-[3-methoxy-4-(4-methylimidazol-1-yl)phenyl]acrylamide] | inhibited | enhanced in a manner dependent on the concentration of Compound A | enhanced in a manner dependent on the concentration of Compound A | inhibited in a manner dependent on the concentration of Compound A | no detectable change | inhibited | – | – |
| N#Cc1ccc(NC(=O)NC(=N)Nc2ccc(Cl)cc2)cc1 [Compound B, N-{[(4-chlorophenyl)amino]iminomethyl}-N′-(4-cyanophenyl)urea] | inhibited | enhanced in a manner dependent on the concentration of Compound B | enhanced in a manner dependent on the concentration of Compound B | inhibited in a manner dependent on the concentration of Compound B | no detectable change | inhibited | – | – |
| CNC(=O)n1ccc2cc(Oc3ccnc(NC(=O)N[C@H](CO)C(=O)N4CCCCC4)c3)ccc21 [Compound C, 5-{2-{3-[(1R)-1-hydroxymethyl-2-oxo-2-piperidin-1-ylethyl]ureido}pyridin-4-yloxy}-1H-indole-1-carboxylic acid methylamide] | inhibited | enhanced in a manner dependent on the concentration of Compound C | – | tended to be inhibited | no detectable change | inhibited | – | Aβ1-39 or Aβ11-39 production (MALDI-TOF/MS) [1]: enhanced in a manner dependent on the concentration of Compound C |
| CC(C)Cc1ccc(C(C)C(=O)O)cc1 (stereo not shown) [ibuprofen] | – | – | – | – | – | – | – | effect on Aβ42 production (Aβ42 production): selectively inhibit Aβ42 production |
| Aβ1-40: human-type Aβ1-40 (Peptide Institute, Inc., Prod. # 4307-v); amyloid β peptide | – | – | – | – | – | – | no increase in the fluorescence intensity | likelihood of forming a β-sheet structure (CD), compared with Aβ1-42 [3]: less likely to form a β-sheet structure than Aβ1-42; effect on β-sheet structure formation in Aβ1-42 (CD) (Aβ1-42 [4]): weaker than that of Aβ1-37 or Aβ1-38; time after mixing with Aβ1-42 at which a CD spectrum indicative of β-sheet structure was detected (Aβ1-42 [4]; 37° C., Aβ1-42+buffer showed β-sheet from 1 day): 2 days; increase in ThT fluorescence intensity (β-sheet structure formation) of Aβ1-42 compared to Aβ1-42 alone (Aβ1-42 [5]): the formation of β-sheet structure was inhibited; also recorded: the increase in the fluorescence intensity was inhibited |
| Aβ1-42: human-type Aβ1-42 (Peptide Institute, Inc., Prod. # 4349-v); amyloid β peptide | – | – | – | – | – | – | increased with increasing incubation time | – |
